The values below come from US8680133B2, “Alkyl indole-3-carbinol-derived antitumor agents” (The Ohio State University Research Foundation, priority 2009, dated 2014).

For one test, the system named is PC-3 xenograft tumor. The test is described as follows: PC-3 xenograft tumor growth in nude mice, oral gavage. Format: in vivo. As to conditions: 25 and 50 mg/kg per day by oral gavage, 49-day treatment; in words. How it is done: FIG. 2 provides three graphs (A-C) showing the in vivo effects of OSU-A9M (C) versus OSU-A9 (A) and OSU-A9 F (B), each at 25 and 50 mg/kg per day by oral gavage, on suppressing PC-3 xenograft tumor growth in nude mice (n=6).
The efficacy studies were therefore repeated with OSU-A9M and OSU-A9F, following 42 days and 49 days treatment, respectively, versus OSU-A9 with 49-day treatment.
In all three treatments, the body weights of drug-treated mice were not affected. No signs of overt toxicity were observed.

The test system of test [1] is PC-3 prostate cancer cells. The test is described as follows: MTT assay of PC-3 cell viability. Format: cell-based. The conditions noted are these: MTT assay, 24, 48 and 72 h; comparison in words. How it is done: Each data point represents means±S.D. (n=6). The activity of OSU-A9M versus its parent compound A9 ([1-(3′-nitro-4′-chlorobenzenesulfonyl)-1H-indol-3-yl]-methanol) and its fluorinated counterpart OSU-A9F ([1-(4-Chloro-3-nitro-benzenesulfonyl)-5-fluoro-1H-indol-3-yl])-methanol in suppressing the cell viability of PC-3 prostate cancer cells was compared using the MTT [3-(4,5-dimethylthiazol-2-yl)-2,5-diphenyl-2H-tetrazolium bromide] assay. Cancer cells and PrECs were grown in 5% FBS-supplemented RPMI 1640 medium or 5% FBS-supplemented prostate epithelial growth medium, respectively, in 96-well, flat-bottomed plates for 24 h, and then exposed to various concentrations of test agents in the same medium for the indicated time intervals. Controls received DMSO vehicle at a concentration equal to that in drug-treated cells. At the end of the treatment, the medium was removed, replaced by 200 μL of 0.5 mg/mL of MTT in the same medium, and cells were incubated in the CO2 incubator at 37° C. for 2 h. Supernatants were removed from the wells, and the reduced MTT dye was solubilized in 200 μL/well DMSO. Absorbance at 570 nm was determined on a plate reader.
(In general: Tetrazolium dyes change colour on reduction, which living cells bring about.)

`O=[N+]([O-])c1cc(S(=O)(=O)n2cc(CO)c3ccccc32)ccc1Cl` [OSU-A9, [1-(3′-nitro-4′-chlorobenzenesulfonyl)-1H-indol-3-yl]-methanol, reference compound]: in the test with PC-3 xenograft tumor, the “Tumor growth suppression in the PC-3 model” value is listed as “significant tumor growth suppression”.
As to `O=[N+]([O-])c1cc(S(=O)(=O)n2cc(CO)c3cc(F)ccc32)ccc1Cl` [OSU-A9F, reference compound], in test [1], the “In vitro potency against the viability of PC-3 cells” value is “greater than or similar to that of OSU-A9”.
